Results taken from the supplement of paper PMC10307832.

Experiments:
Assay in all cases: relative viability (nuclei count vs DMSO), 5 days (fraction); higher = more cells survive
[1] = tested on: 201T
How it was run: (§1)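 Values are medians from duplicate plates. Each reflects relative viability, defined as the nuclei count of treated wells over that of vehicle wells. Lung cancer cell lines in 1536-well plates were pin-tool dosed one day after seeding with one drug alone or with a fixed anchor-drug dose plus five library-drug doses (not always all listed) in √10 steps, then fixed, stained and imaged at 4× after 5 days.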

[2] = tested on: A-427
How it was run: as §1

[3] = tested on: COR-L 105
How it was run: as §1

[4] = tested on: COR-L23
How it was run: as §1

[5] = tested on: EKVX
How it was run: as §1

[6] = tested on: HARA
How it was run: as §1

[7] = tested on: HCC-15
How it was run: as §1

[8] = tested on: HCC-44
How it was run: as §1

[9] = tested on: HCC-827
How it was run: as §1

[10] = tested on: LCLC-103H
How it was run: as §1

[11] = tested on: LK-2
How it was run: as §1

[12] = tested on: NCI-H1437
How it was run: as §1

[13] = tested on: NCI-H1666
How it was run: as §1

[14] = tested on: NCI-H1792
How it was run: as §1

[15] = tested on: NCI-H1975
How it was run: as §1

[16] = tested on: NCI-H23
How it was run: as §1

[17] = tested on: NCI-H441
How it was run: as §1

[18] = tested on: NCI-H520
How it was run: as §1

[19] = tested on: NCI-H522
How it was run: as §1

[20] = tested on: NCI-H596
How it was run: as §1

[21] = tested on: NCI-H650
How it was run: as §1

[22] = tested on: NCI-H838
How it was run: as §1

[23] = tested on: SK-MES-1
How it was run: as §1

[24] = tested on: SW 900
How it was run: as §1

Clc1ccc(Nc2nnc(Cc3ccncc3)c3ccccc23)cc1 [Vatalanib] + Nc1nc2[nH]cc(CCc3ccc(C(=O)N[C@@H](CCC(=O)O)C(=O)O)cc3)c2c(=O)[nH]1 [Pemetrexed] (partner 0.2 µM)
relative viability ([1]; first compound 0.04 µM): 0.305
relative viability ([1]; first compound 0.1265 µM): 0.335
relative viability ([1]; first compound 0.4 µM): 0.337
relative viability ([1]; first compound 1.265 µM): 0.359
relative viability ([1]; first compound 4 µM): 0.311
relative viability ([2]; first compound 0.04 µM): 0.98
relative viability ([2]; first compound 0.1265 µM): 0.957
relative viability ([2]; first compound 0.4 µM): 0.993
relative viability ([2]; first compound 4 µM): 0.947
relative viability ([3]; first compound 0.04 µM): 1.34
relative viability ([3]; first compound 0.1265 µM): 1.1
relative viability ([3]; first compound 0.4 µM): 1.2
relative viability ([3]; first compound 1.265 µM): 1.15
relative viability ([3]; first compound 4 µM): 1.04
relative viability ([4]; first compound 0.04 µM): 0.204
relative viability ([4]; first compound 0.1265 µM): 0.194
relative viability ([4]; first compound 0.4 µM): 0.212
relative viability ([4]; first compound 1.265 µM): 0.201
relative viability ([4]; first compound 4 µM): 0.208
relative viability ([5]; first compound 0.04 µM): 0.416
relative viability ([5]; first compound 0.1265 µM): 0.425
relative viability ([5]; first compound 0.4 µM): 0.393
relative viability ([5]; first compound 1.265 µM): 0.339
relative viability ([5]; first compound 4 µM): 0.365
relative viability ([6]; first compound 0.04 µM): 0.225
relative viability ([6]; first compound 0.1265 µM): 0.265
relative viability ([6]; first compound 0.4 µM): 0.252
relative viability ([6]; first compound 1.265 µM): 0.232
relative viability ([6]; first compound 4 µM): 0.256
relative viability ([7]; first compound 0.04 µM): 0.234
relative viability ([7]; first compound 0.1265 µM): 0.218
relative viability ([7]; first compound 0.4 µM): 0.225
relative viability ([7]; first compound 1.265 µM): 0.235
relative viability ([7]; first compound 4 µM): 0.219
relative viability ([8]; first compound 0.04 µM): 0.593
relative viability ([8]; first compound 0.1265 µM): 0.61
relative viability ([8]; first compound 0.4 µM): 0.673
relative viability ([8]; first compound 1.265 µM): 0.638
relative viability ([8]; first compound 4 µM): 0.683
relative viability ([9]; first compound 0.04 µM): 0.241
relative viability ([9]; first compound 0.1265 µM): 0.232
relative viability ([9]; first compound 1.265 µM): 0.263
relative viability ([9]; first compound 4 µM): 0.231
relative viability ([10]; first compound 0.04 µM): 0.343
relative viability ([10]; first compound 0.1265 µM): 0.428
relative viability ([10]; first compound 0.4 µM): 0.449
relative viability ([10]; first compound 1.265 µM): 0.487
relative viability ([10]; first compound 4 µM): 0.453
relative viability ([11]; first compound 0.04 µM): 0.241
relative viability ([11]; first compound 0.1265 µM): 0.252
relative viability ([11]; first compound 0.4 µM): 0.319
relative viability ([11]; first compound 1.265 µM): 0.235
relative viability ([11]; first compound 4 µM): 0.207
relative viability ([12]; first compound 0.04 µM): 0.33
relative viability ([12]; first compound 0.1265 µM): 0.342
relative viability ([12]; first compound 0.4 µM): 0.328
relative viability ([12]; first compound 1.265 µM): 0.26
relative viability ([12]; first compound 4 µM): 0.275
relative viability ([13]; first compound 0.04 µM): 0.845
relative viability ([13]; first compound 0.1265 µM): 0.844
relative viability ([13]; first compound 0.4 µM): 0.843
relative viability ([13]; first compound 1.265 µM): 0.799
relative viability ([13]; first compound 4 µM): 0.901
relative viability ([14]; first compound 0.04 µM): 0.902
relative viability ([14]; first compound 0.1265 µM): 0.781
relative viability ([14]; first compound 0.4 µM): 0.771
relative viability ([14]; first compound 1.265 µM): 0.817
relative viability ([14]; first compound 4 µM): 0.699
relative viability ([15]; first compound 0.04 µM): 0.265
relative viability ([15]; first compound 0.1265 µM): 0.305
relative viability ([15]; first compound 0.4 µM): 0.297
relative viability ([15]; first compound 1.265 µM): 0.28
relative viability ([15]; first compound 4 µM): 0.286
relative viability ([16]; first compound 0.04 µM): 0.579
relative viability ([16]; first compound 0.1265 µM): 0.654
relative viability ([16]; first compound 0.4 µM): 0.728
relative viability ([16]; first compound 1.265 µM): 0.59
relative viability ([16]; first compound 4 µM): 0.544
relative viability ([17]; first compound 0.04 µM): 0.249
relative viability ([17]; first compound 0.1265 µM): 0.215
relative viability ([17]; first compound 0.4 µM): 0.257
relative viability ([17]; first compound 1.265 µM): 0.265
relative viability ([17]; first compound 4 µM): 0.274
relative viability ([18]; first compound 0.04 µM): 0.676
relative viability ([18]; first compound 0.1265 µM): 0.654
relative viability ([18]; first compound 0.4 µM): 0.751
relative viability ([18]; first compound 1.265 µM): 0.625
relative viability ([18]; first compound 4 µM): 0.62
relative viability ([19]; first compound 0.04 µM): 0.923
relative viability ([19]; first compound 0.1265 µM): 0.861
relative viability ([19]; first compound 0.4 µM): 1.24
relative viability ([19]; first compound 1.265 µM): 0.86
relative viability ([19]; first compound 4 µM): 0.945
relative viability ([20]; first compound 0.04 µM): 0.482
relative viability ([20]; first compound 0.1265 µM): 0.488
relative viability ([20]; first compound 0.4 µM): 0.524
relative viability ([20]; first compound 1.265 µM): 0.514
relative viability ([20]; first compound 4 µM): 0.47
relative viability ([21]; first compound 0.04 µM): 0.931
relative viability ([21]; first compound 0.1265 µM): 0.833
relative viability ([21]; first compound 0.4 µM): 1.03
relative viability ([21]; first compound 1.265 µM): 0.885
relative viability ([21]; first compound 4 µM): 0.996
relative viability ([22]; first compound 0.04 µM): 0.243
relative viability ([22]; first compound 0.1265 µM): 0.226
relative viability ([22]; first compound 0.4 µM): 0.261
relative viability ([22]; first compound 1.265 µM): 0.239
relative viability ([22]; first compound 4 µM): 0.239
relative viability ([23]; first compound 0.04 µM): 0.905
relative viability ([23]; first compound 0.1265 µM): 0.925
relative viability ([23]; first compound 0.4 µM): 1.05
relative viability ([23]; first compound 1.265 µM): 0.912
relative viability ([23]; first compound 4 µM): 0.787
relative viability ([24]; first compound 0.04 µM): 0.476
relative viability ([24]; first compound 0.1265 µM): 0.471
relative viability ([24]; first compound 0.4 µM): 0.467
relative viability ([24]; first compound 1.265 µM): 0.478
relative viability ([24]; first compound 4 µM): 0.464
